Assay results as given in patent US20250197391A1, “METHODS OF SYNTHESIZING EGFR INHIBITORS” (Scorpion Therapeutics, Inc., priority 2022, published 2025).
≈ marks a conversion by molar mass, not a printed value. Where “and” joins values, the source holds several entries; their conditions need not be identical. Equal entries are not always repeated. One block for each compound: values may come before it.

How the values were obtained:
[1] = Stability of process solutions / solid on drying over days (HPLC area %); type: physicochemical
[2] = Solubility data in solvents; type: physicochemical; conditions: for solubility: organic solvent or mixture

SMILES: COc1c(Cl)cccc1N=C=S [Compound 1, 1-chloro-3-isothiocyanato-2-methoxybenzene]
Area % after hold ([1]; IPAC solution, 40 ± 5 C., 1 d): 96.0 A %
Area % after hold ([1]; IPAC solution, 40 ± 5 C., 2 d): 95.9 A %
Area % after hold ([1]; IPAC solution, 40 ± 5 C., 3 d): 94.3 A %
Area % after hold ([1]; IPAC solution, 50 ± 5 C., 1 d): 95.5 A %
Area % after hold ([1]; IPAC solution, 50 ± 5 C., 2 d): 94.7 A %
Area % after hold ([1]; IPAC solution, 50 ± 5 C., 3 d): 90.5 A %

solubility ([2]; solvent ACN): 33 mg/mL (≈ 79.9 mM)
solubility ([2]; solvent DCM): > 200 mg/mL
solubility ([2]; solvent EtOAc): 100 mg/mL (≈ 242 mM)
solubility ([2]; solvent EtOH): < 5 mg/mL
solubility ([2]; solvent MTBE): 28 mg/mL (≈ 67.8 mM)
solubility ([2]; solvent MeOH): 5 mg/mL (≈ 12.1 mM)
solubility ([2]; solvent n-heptane): < 5 mg/mL
Area % after hold ([1]; IPAC solution pH = 5-6, 20 ± 5 C., 0 d): 90.1 A %
Area % after hold ([1]; IPAC solution pH = 5-6, 20 ± 5 C., 1 d): 89.8 A %
Area % after hold ([1]; IPAC solution pH = 5-6, 20 ± 5 C., 3 d): 90.9 A %
Area % after hold ([1]; IPAC solution, 25 ± 5 C., 0 d): 87.3%
Area % after hold ([1]; IPAC solution, 25 ± 5 C., 1 d, listed as Comp. 2): 88.7% and 86.0%
Area % after hold ([1]; IPAC solution, 25 ± 5 C., 2 d, listed as Comp. 2): 86.5% and 85.6%
Area % after hold ([1]; IPAC solution, 25 ± 5 C., 3 d, listed as Comp. 2): 85.2% and 83.5%
Area % after hold ([1]; IPAC solution, 40 ± 5 C., 0 d): 90.1 A %
Area % after hold ([1]; IPAC solution, 40 ± 5 C., 1 d, listed as Comp. 2): 88.6 A % and 87.7 A %
Area % after hold ([1]; IPAC solution, 40 ± 5 C., 3 d, listed as Comp. 2): 84.7 A % and 80.0%
Area % after hold ([1]; on drying, 45 ± 5 C., 0 d): 99.7 A %
Area % after hold ([1]; on drying, 45 ± 5 C., 3 d): 99.8%
SMILES: COc1c(Cl)cccc1NC(=S)C1=C(O)CCN(C(=O)OC(C)(C)C)C1=O [Compound 2, tert-butyl 5-((3-chloro-2-methoxyphenyl)carbamothioyl)-4-hydroxy-6-oxo-3,6-dihydropyridine-1(2H)-carboxylate]

solubility ([2]; solvent ACN): 33 mg/mL (≈ 60.2 mM)
solubility ([2]; solvent DCM): > 125 mg/mL
solubility ([2]; solvent EtOAc): 6.25 mg/mL (≈ 11.4 mM)
solubility ([2]; solvent EtOH): 6.25 mg/mL (≈ 11.4 mM)
solubility ([2]; solvent MTBE): 6.25 mg/mL (≈ 11.4 mM)
solubility ([2]; solvent MeOH): 7.1 mg/mL (≈ 13 mM)
solubility ([2]; solvent n-heptane): < 5 mg/mL
solubility ([2]; solvent toluene): < 5 mg/mL
SMILES: COc1c(Cl)cccc1Nc1c(-c2ccncc2Br)[nH]c2c1C(=O)N(C(=O)OC(C)(C)C)CC2 [Compound 101, tert-butyl 2-(3-bromopyridin-4-yl)-3-((3-chloro-2-methoxyphenyl)amino)-4-oxo-1,4,6,7-tetrahydro-5H-pyrrolo[3,2-c]pyridine-5-carboxylate]

solubility ([2]; solvent 2-MeTHF): 5 mg/mL (≈ 11.2 mM)
solubility ([2]; solvent DMAC): > 200 mg/mL
solubility ([2]; solvent DMF): > 100 mg/mL
solubility ([2]; solvent DMSO): > 100 mg/mL
solubility ([2]; solvent HFIP): 94 mg/mL (≈ 210 mM)
solubility ([2]; solvent MeCN): 2 mg/mL (≈ 4.47 mM)
solubility ([2]; solvent NMP): > 100 mg/mL
solubility ([2]; solvent TFE): 79 mg/mL (≈ 176 mM)
solubility ([2]; solvent THE): 31 mg/mL (≈ 69.2 mM)
SMILES: COc1c(Cl)cccc1Nc1c(-c2ccncc2Br)[nH]c2c1C(=O)NCC2 [Compound 102, 2-(3-bromopyridin-4-yl)-3-((3-chloro-2-methoxyphenyl)amino)-1,5,6,7-tetrahydro-4H-pyrrolo[3,2-c]pyridin-4-one]
Dissolution in crystallization solvents ([2]; 5 V of DCM, MeCN, MTBE, THF, MeOH, EtOAc or toluene at reflux): has not been dissolved in all these solvents at reflux except for THE
